Measured values taken from US20090062223A1, “AMINO TRICYCLIC-NUCLEOSIDE COMPOUNDS, COMPOSITIONS, AND METHODS OF USE” (GENELABS TECHNOLOGIES, INC., priority 2007, published 2009).
≈ marks a conversion by molar mass, not a printed value.

How the values were obtained:
[1] = Chemical stability in acidic solution (acid stability); format: physicochemical; details: pH 4.5 chemical solution; pH 4.5, 37° C.; read-out: Acid Stability (T ½, mins @ pH 4.5)
Caco-2 cells = test: in vitro; format: in vitro ADME
Procedure: Caco-2 cells were maintained in Dulbecco's Modification of Eagle's Medium (DMEM) with sodium pyruvate, Glutmax supplemented with 1% Pen/Strep, 1% NEAA and 10% fetal bovine serum in an incubator set at 37° C., 90% humidity and 5% CO2. Caco-2 cells between passage 43 and 61 were grown to confluence over at least 21-days on 24 well PET (polyethylene-terephthalate) plates (BD Biosciences). Experiments were run using a new HBSS donor buffer from Invitrogen containing additional 10 mM HEPES, 15 mM Glucose with pH adjusted to pH 6.5. The receiver well used HBSS buffer supplemented with 1% BSA and the pH adjusted to pH 7.4. After an initial equilibration with transport buffer, TEER values were read to test membrane integrity. The experiment was started by the addition of buffers containing test compounds and 100 μl of solution is taken at 1 and 2 hrs from the receiver compartment. Removed buffer was replaced with fresh buffer and a correction was applied to all calculations for the removed material. Each compound was tested in 2 separate replicate wells for each condition. All samples were immediately collected into 400 μl 100% acetonitrile acid to precipitate protein and stabilize test compounds. Cells were dosed on the apical or basolateral side to determine forward (A to B) and reverse (B to A) permeability. Permeability through a cell free trans-well was also determined as a measure of cellular permeability through the membrane and non-specific binding. To test for non-specific binding and compound instability the total amount of drug was quantitated at the end of the experiment and compared to the material present in the original dosing solution as a percent recovery. Samples were analyzed by LC/MS/MS.
The apparent permeability, Papp, and % recovery were calculated as follows: […]
where, • dR/dt is the slope of the cumulative concentration in the receiver compartment versus time in μM/s based on receiver concentrations measured at 60 and 120 minute. • Vr and Vd is the volume in the receiver and donor compartment in cm^3, respectively. • A is the area of the cell monolayer (0.33 cm^2). • D0 and D120 is the measured donor concentration at the beginning and end of the experiment, respectively. • R120 is the receiver concentration at the end of the experiment (120 minutes).
The apparent permeability for certain compounds were determined using the above procedure.

[2] = Solubility (shaking flask); format: physicochemical; details: thermodynamic from solid, 37° C. for 24 hours
Procedure: The solubility for certain compounds were determined using the following protocol and procedure. 1) The solution, sterile water or phosphate buffer solution (PBS), was added to the test compound tube to make the final concentration 10 mg/mL. 2) The sample tube was vortexed and incubated at 37° C. for 24 hours. During the incubation period, the sample tube was vortexed several times. 3) After the incubation, vortex the tube and centrifuge the tube at 13,000 rpm for 10 mins using an Eppendorf Centrifuge Model 5415C. If the solution was still cloudy, centrifuge it for longer until a clear supernatant was achieved. 4) The supernatant was diluted to 1×, 10× and 100× in 50% ACN in water. 5) A six point standard curve was prepared separately to make the final concentrations of 1 μg/mL, 5 μg/mL, 10 μg/mL, 20 μg/mL, 40 μg/mL and 60 μg/mL. 6) Samples were quantified using an HPLC with UV detector. 7) From the three concentrations of 1×, 10× and 100× supernatant, choose the value, which was fallen into the standard curve range (1 ug/mL-60 ug/mL), as the final result. If all the results were out of the curve range, adjust using a dilution factor to make the value within the curve range.

[3] = phosphate buffer solution (PBS), aqueous buffer, PBS

half-life at 1 µg/mL [1] [min] | Permeability Papp (A to B) × 10^−6 cm/s (Caco-2 A-B) (Caco-2 cells) | solubility at 24 h [2, 3] [µg/mL] | solubility at 24 h ([2]; sterile water, water) [µg/mL] | SMILES
< 30 | high | 9060 (≈ 21700 µM) |  | CC(C)C(=O)OC[C@H]1O[C@@H](n2cc3c4c(ncnc42)NC(=O)C=C3N)[C@@](C)(O)[C@@H]1O (stereo in doubt) [Compound 105, Isobutyric acid 5-(9-amino-7-oxo-6,7-dihydro-2,3,5,6-tetraaza-benzo[cd]azulen-2-yl)-3,4-dihydroxy-4-methyl-tetrahydro-furan-2-ylmethylester]
< 30 | medium | 67 (≈ 150 µM) |  | CCCCCC(=O)O[C@@H]1[C@@H](CO)O[C@@H](n2cc3c4c(ncnc42)NC(=O)C=C3N)[C@]1(C)O [Compound 113, Hexanoic acid 5-(9-amino-7-oxo-6,7-dihydro-2,3,5,6-tetraaza-benzo[cd]azulen-2-yl)-4-hydroxy-2-hydroxymethyl-4-methyl-tetrahydro-furan-3-yl ester]
 | medium | 2950 (≈ 7580 µM) |  | CC(=O)O[C@@H]1[C@@H](CO)O[C@@H](n2cc3c4c(ncnc42)NC(=O)C=C3N)C1(C)O (stereo in doubt) [Compound 114, Acetic acid 5-(9-amino-7-oxo-6,7-dihydro-2,3,5,6-tetraaza-benzo[cd]azulen-2-yl)-4-hydroxy-2-hydroxymethyl-4-methyl-tetrahydro-furan-3-yl ester]
< 30 | high | 137 (≈ 308 µM) |  | CCCCCC(=O)OC[C@H]1O[C@@H](n2cc3c4c(ncnc42)NC(=O)C=C3N)[C@@](C)(O)[C@@H]1O (stereo in doubt) [Compound 101, Hexanoic acid 5-(9-amino-7-oxo-6,7-dihydro-2,3,5,6-tetraaza-benzo[cd]azulen-2-yl)-3,4-dihydroxy-4-methyl-tetrahydro-furan-2-ylmethylester]
 | low | 9150 (≈ 23500 µM) |  | CC(=O)OC[C@H]1O[C@@H](n2cc3c4c(ncnc42)NC(=O)C=C3N)[C@@](C)(O)[C@@H]1O (stereo in doubt) [Compound 107, Acetic acid 5-(9-amino-7-oxo-6,7-dihydro-2,3,5,6-tetraaza-benzo[cd]azulen-2-yl)-3,4-dihydroxy-4-methyl-tetrahydro-furan-2-ylmethylester]
< 30 | low | 67 (≈ 137 µM) |  | CC(C)C(=O)OC[C@H]1O[C@@H](n2cc3c4c(ncnc42)NC(=O)C=C3N)[C@@](C)(O)[C@@H]1OC(=O)C(C)C (stereo in doubt) [Compound 134, Isobutyric acid 5-(9-amino-7-oxo-6,7-dihydro-2,3,5,6-tetraaza-benzo[cd]azulen-2-yl)-4-hydroxy-3-isobutyryloxy-4-methyl-tetrahydro-furan-2-ylmethyl ester]
 | high | 11 (≈ 20.2 µM) |  | CCCCCC(=O)OC[C@H]1O[C@@H](n2cc3c4c(ncnc42)NC(=O)C=C3N)[C@@](C)(O)[C@@H]1OC(=O)CCCCC (stereo in doubt) [Compound 102, Hexanoic acid 5-(9-amino-7-oxo-6,7-dihydro-2,3,5,6-tetraaza-benzo[cd]azulen-2-yl)-3-hexanoyloxy-4-hydroxy-4-methyl-tetrahydro-furan-2-ylmethyl ester]
< 30 | low | 6250 (≈ 12800 µM) |  | CC(=O)N[C@H](C(=O)OC[C@H]1O[C@@H](n2cc3c4c(ncnc42)NC(=O)C=C3N)C(C)(O)[C@@H]1O)C(C)C (stereo partly shown) [Compound 124, 2-Acetylamino-3-methyl-butyric acid5-(9-amino-7-oxo-6,7-dihydro-2,3,5,6-tetraaza-benzo[cd]azulen-2-yl)-3,4-dihydroxy-4-methyl-tetrahydro-furan-2-ylmethyl ester]
< 30 | high | 134 (≈ 321 µM) |  | CC(C)C(=O)O[C@@H]1[C@@H](CO)O[C@@H](n2cc3c4c(ncnc42)NC(=O)C=C3N)C1(C)O (stereo in doubt) [Compound 115, Isobutyric acid 5-(9-amino-7-oxo-6,7-dihydro-2,3,5,6-tetraaza-benzo[cd]azulen-2-yl)-4-hydroxy-2-hydroxymethyl-4-methyl-tetrahydro-furan-3-yl ester]
< 30 | high | 65 (≈ 147 µM) |  | CC(C)C(=O)OC[C@H]1O[C@@H](n2cc3c4c(ncnc42)NC(=O)C=C3N)[C@@]2(C)OC(=O)O[C@H]12 [Compound 106, Isobutyric acid 6-(9-amino-7-oxo-6,7-dihydro-2,3,5,6-tetraaza-benzo[cd]azulen-2-yl)-6a-methyl-2-oxo-tetrahydro-furo[3,4-d][1,3]dioxol-4-ylmethyl ester]
≤ 30 | low |  |  | CCCCCOC(=O)OC[C@H]1O[C@@H](n2cc3c4c(ncnc42)NC(=O)C=C3N)[C@@](C)(O)[C@@H]1O (stereo in doubt) [Compound 103, Carbonic acid 5-(9-amino-7-oxo-6,7-dihydro-2,3,5,6-tetraaza-benzo[cd]azulen-2-yl)-3,4-dihydroxy-4-methyl-tetrahydro-furan-2-ylmethylester pentyl ester]
> 120 |  |  | 120 (≈ 214 µM) | CC(C)C(=O)OCOC(=O)NC1=CC(=O)Nc2ncnc3c2c1cn3[C@@H]1O[C@H](COC(=O)C(C)C)[C@@H](O)C1(C)O (stereo partly shown) [Compound 129, Isobutyric acid 3,4-dihydroxy-5-(9-isobutyryloxymethoxycarbonyl-amino-7-oxo-6,7-dihydro-2,3,5,6-tetraaza-benzo[cd]azulen-2-yl)-4-methyl-tetrahydro-furan-2-ylmethylester]
< 15 | medium | 28 (≈ 67.4 µM) |  | CC(=O)OC[C@H]1O[C@@H](n2cc3c4c(ncnc42)NC(=O)C=C3N)[C@@]2(C)OC(=O)O[C@H]12 [Compound 108, Acetic acid 6-(9-amino-7-oxo-6,7-dihydro-2,3,5,6-tetraaza-benzo[cd]azulen-2-yl)-6a-methyl-2-oxo-tetrahydro-furo[3,4-d][1,3]dioxol-4-ylmethyl ester]
< 30 | low | 202 (≈ 541 µM) |  | CC12OC(=O)O[C@@H]1[C@@H](CO)O[C@H]2n1cc2c3c(ncnc31)NC(=O)C=C2N (stereo partly shown) [Compound 116, 9-Amino-2-(6-hydroxymethyl-3a-methyl-2-oxo-tetrahydro-furo[3,4-d][1,3]dioxol-4-yl)-2,6-dihydro-2,3,5,6-tetraaza-benzo[cd]azulen-7-one]
> 120 | medium | 32 (≈ 69.3 µM) |  | CCCCCOC(=O)NC1=CC(=O)Nc2ncnc3c2c1cn3[C@@H]1O[C@H](CO)[C@@H](O)[C@@]1(C)O [Compound 138, [2-(3,4-Dihydroxy-5-hydroxymethyl-3-methyl-tetrahydro-furan-2-yl)-7-oxo-6,7-dihydro-2H-2,3,5,6-tetraaza-benzo[cd]azulen-9-yl]-carbamic acidpentyl ester]

SMILES | half-life at 1 µg/mL [1] [min] | Permeability Papp (A to B) × 10^−6 cm/s (Caco-2 A-B) (Caco-2 cells) | solubility at 24 h [2, 3] [µg/mL] | solubility at 24 h ([2]; sterile water, water) [µg/mL]
CC(=O)OC[C@H]1O[C@@H](n2cc3c4c(ncnc42)NC(=O)C=C3N)[C@@](C)(O)[C@@H]1OC(C)=O (stereo in doubt) [Compound 135, Acetic acid 3-acetoxy-5-(9-amino-7-oxo-6,7-dihydro-2,3,5,6-tetraaza-benzo[cd]azulen-2-yl)-4-hydroxy-4-methyl-tetrahydro-furan-2-ylmethylester] | < 15 | medium | 7280 (≈ 16900 µM) | 
